Experiments:
S. aureus 39105 = test: agar diffusion test (Test System II, multi-resistant germs); format: cell-based, Staphylococcus aureus; parameters: key: r = resistant (no detectable zone of inhibition)
Procedure, shortened: (§1)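 Stepped amounts of each substance (10, 50, 100 μg) were applied to carrier discs from methanol or water according to solubility. These were laid on Müller-Hinton agar II inoculated at McFarland 0.5, and zones of inhibition were read following overnight incubation (18-20 h) at 37 °C.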

S. aureus 526 = test: as above; format: cell-based, Staphylococcus aureus; parameters: key: r = resistant (no detectable zone of inhibition)
Procedure, shortened: as §1

S. aureus 36881 = test: as above; format: cell-based, Staphylococcus aureus; parameters: key: r = resistant (no detectable zone of inhibition)
Procedure, shortened: as §1

S. aureus 33490 = test: as above; format: cell-based, Staphylococcus aureus; parameters: key: r = resistant (no detectable zone of inhibition)
Procedure, shortened: as §1

[1] = test system: S. aureus North Germany strain; test: as above; format: cell-based, Staphylococcus aureus; parameters: key: r = resistant (no detectable zone of inhibition)
Procedure, shortened: as §1

S. aureus 34289 = test: as above; format: cell-based, Staphylococcus aureus; parameters: key: r = resistant (no detectable zone of inhibition)
Procedure, shortened: as §1

S. aureus 520 = test: as above; format: cell-based, Staphylococcus aureus; parameters: key: r = resistant (no detectable zone of inhibition)
Procedure, shortened: as §1

S. aureus 38418 = test: as above; format: cell-based, Staphylococcus aureus
Procedure, shortened: as §1

S. aureus ATCC 6538 = test: as above; format: cell-based, Staphylococcus aureus
Procedure, shortened: as §1

S. epidermidis 1071 = test: as above; format: cell-based, Staphylococcus epidermidis
Procedure, shortened: as §1

S. epidermidis 563 = test: as above; format: cell-based, Staphylococcus epidermidis
Procedure, shortened: as §1

S. epidermidis 847 = test: as above; format: cell-based, Staphylococcus epidermidis
Procedure, shortened: as §1

S. epidermidis 1068 = test: as above; format: cell-based, Staphylococcus epidermidis
Procedure, shortened: as §1

[2] = test system: Staphylococcus aureus ATCC 6538; test: mouse infected with Staphylococcus aureus infection model (survival); format: in vivo, BALB/c mice; details: 2 × 1.5 mg (75 mg/kg) i.p.
Procedure, shortened: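 Survival model: S. aureus grown to extinction 0.6 at 550 nm and injected i.p. (10 μl/g body weight) into cyclophosphamide-pretreated BALB/c mice (250 then 100 mg/kg i.p.), ≥3 animals per arm. Test antibiotic dosed i.p. at 30 min and again later at the same concentration, vehicle PBS/3% DMSO.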

E. faecalis 945 = test: agar diffusion test (Test System II, multi-resistant germs); format: cell-based, Enterococcus faecalis; parameters: key: r = resistant (no detectable zone of inhibition)
Procedure, shortened: as §1

B. subtilis AWD 166 = test: agar diffusion test (antimicrobial effect); format: cell-based, Bacillus subtilis
Procedure, shortened: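 Inhibition zone diameters (mm) read after 20 h incubation at 37 °C. Discs carried 10 μg, 50 μg or 100 μg of test substance, dissolved in methanol or distilled water, on agar inoculated with B. subtilis AWD 166 for dense but separate colonies.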

Q: Which results are given for “3-chlorine-7-[2-(2-methoxycarbonyl-3,6-dioxocyclohexa-1,4-dienylamino)-2-phenyl-acetylamino]-8-oxo-1-thia-5-azabicyclo[4.2.0]oct-3-en-4-carboxylic acid [1k]”?
A: Diameter of zone of inhibition (S. aureus 39105; Quantity n 0.029): 8 mm; Diameter of zone of inhibition (S. aureus 39105; Quantity n 0.14): 20 mm; Diameter of zone of inhibition (S. aureus 39105; Quantity n 0.29): 22 mm; Diameter of zone of inhibition (S. aureus 526; Quantity n 0.029): r; Diameter of zone of inhibition (S. aureus 526; Quantity n 0.14): r; Diameter of zone of inhibition (S. aureus 526; Quantity n 0.29): r; Diameter of zone of inhibition (S. aureus 36881; Quantity n 0.029): r; Diameter of zone of inhibition (S. aureus 36881; Quantity n 0.14): 14 mm; Diameter of zone of inhibition (S. aureus 36881; Quantity n 0.29): 18 mm; Diameter of zone of inhibition (S. aureus 33490; Quantity n [μmol] 0.029): 16 mm; Diameter of zone of inhibition (S. aureus 33490; Quantity n [μmol] 0.14): 24 mm; Diameter of zone of inhibition (S. aureus 33490; Quantity n [μmol] 0.29): 26 mm; Diameter of zone of inhibition ([1]; Quantity n 0.029): r; Diameter of zone of inhibition ([1]; Quantity n 0.14): 14 mm; Diameter of zone of inhibition ([1]; Quantity n 0.29): 18 mm; Diameter of zone of inhibition (S. aureus 34289; Quantity n [mol] 0.029): r; Diameter of zone of inhibition (S. aureus 34289; Quantity n [mol] 0.14): r; Diameter of zone of inhibition (S. aureus 34289; Quantity n [mol] 0.29): r; Diameter of zone of inhibition (S. aureus 520; Quantity n [mol] 0.029): r; Diameter of zone of inhibition (S. aureus 520; Quantity n [mol] 0.14): r; Diameter of zone of inhibition (S. aureus 520; Quantity n [mol] 0.29): 10 mm; Diameter of zone of inhibition (S. aureus 38418; Quantity n [mol] 0.029): 22 mm; Diameter of zone of inhibition (S. aureus 38418; Quantity n [mol] 0.14): 30 mm; Diameter of zone of inhibition (S. aureus 38418; Quantity n [mol] 0.29): 34 mm; Diameter of zone of inhibition (S. aureus ATCC 6538; Quantity n 0.029): 28 mm; Diameter of zone of inhibition (S. aureus ATCC 6538; Quantity n 0.14): 36 mm; Diameter of zone of inhibition (S. aureus ATCC 6538; Quantity n 0.29): 38 mm; Diameter of zone of inhibition (S. epidermidis 1071; Quantity n 0.029): 18 mm; Diameter of zone of inhibition (S. epidermidis 1071; Quantity n 0.14): 24 mm; Diameter of zone of inhibition (S. epidermidis 1071; Quantity n 0.29): 28 mm; Diameter of zone of inhibition (S. epidermidis 563; Quantity n 0.029): 18 mm; Diameter of zone of inhibition (S. epidermidis 563; Quantity n 0.14): 28 mm; Diameter of zone of inhibition (S. epidermidis 563; Quantity n 0.29): 30 mm; Diameter of zone of inhibition (S. epidermidis 847; Quantity n [mol] 0.029): 8 mm; Diameter of zone of inhibition (S. epidermidis 847; Quantity n [mol] 0.14): 24 mm; Diameter of zone of inhibition (S. epidermidis 847; Quantity n [mol] 0.29): 28 mm; Diameter of zone of inhibition (S. epidermidis 1068; Quantity n 0.029): 14 mm; Diameter of zone of inhibition (S. epidermidis 1068; Quantity n 0.14): 22 mm; Diameter of zone of inhibition (S. epidermidis 1068; Quantity n 0.29): 24 mm; Survival/tested mice n/n [2]: 3/3; Diameter of zone of inhibition (E. faecalis 945; Quantity n 0.029): r; Diameter of zone of inhibition (E. faecalis 945; Quantity n 0.14): r; Diameter of zone of inhibition (E. faecalis 945; Quantity n 0.29): r; Diameter of zone of inhibition (B. subtilis AWD 166; Quantity n 0.029): 30 mm; Diameter of zone of inhibition (B. subtilis AWD 166; Quantity n 0.14): 36 mm; Diameter of zone of inhibition (B. subtilis AWD 166; Quantity n 0.29): 38 mm
